Results: patent US8026257B2 (Bristol-Myers Squibb Company, priority 2007, dated 2011)
Where a name gives a salt, the structure may show the parent alone. Read-outs that look alike come from different tables or passages of the source.

Tests used:
[1] = target: hSERT (Homo sapiens, UniProt P31645); test: SERT radioligand binding assay ([125I]RTI-55, HEK-hSERT membranes); settings: HEK-293 hSERT membranes, 260 pM [125I]RTI-55, 1 hour at room temperature
Procedure: (§1) NK-1 Binding assay. Crude membrane suspensions were prepared for the NK1 and SERT radioligand binding assays from U373 cells or recombinant HEK-293 cells expressing hSERT, respectively. Cells were harvested from T-175 flasks as follows. The medium is removed from the flasks and the cells rinsed with HBSS without Ca and without Mg. The cells are then incubated for 5-10 minutes in 10 mM Tris-Cl, pH 7.5, 5 mM EDTA before the cells are lifted with a combination of pipetting and scraping, as needed. To prepare membranes, the cell suspension is collected into centrifuge bottles and homogenized for 30 seconds with a Polytron homogenizer. The suspension is centrifuged for 30 min@32,000×g, 4° C., then the supernatant is decanted and the pellet resuspended and homogenized in 50 mM Tris-Cl, pH 7.5, 1 mM EDTA for 10 seconds. The suspension is then centrifuged again for 30 min@32,000×g, 4° C. The supernatant is decanted and the pellet resuspended in 50 mM Tris-Cl, pH 7.5, 1 mM EDTA and briefly homogenized. A Bradford assay (Bio-rad) is performed and the membrane preparation diluted to 2 mg/ml with 50 mM Tris-Cl, pH 7.5, 1 mM EDTA. Aliquots are prepared, and then frozen and stored at −80° C.
SERT radioligand binding assay. Compounds are dissolved in 100% DMSO at a concentration 100× the desired highest assay concentration, serially diluted 1:3 in 100% DMSO, and 0.4 ul/well of each solution is dispensed to a Nunc polypropylene, round bottom, 384 well plate. 100% inhibition is defined with 0.4 ul/well of 1 mM fluoxetine (Sigma F-132) dissolved in DMSO. 20 ul/well of a 2× HEK-hSERT membrane preparation (15 ug/ml in 50 mM Tris-Cl, pH 7.5, 120 mM NaCl, 5mM KCl) and 20 ul/well of a 2× radioligand solution (520 pM [^125I]RTI-55 (Perkin-Elmer NEX-272) in 50 mM Tris-Cl, pH 7.5, 120 mM NaCl, 5mM KCl) are added to each well and the reaction incubated for 1 hour at room temperature. The contents of the assay plate are then transferred to a Millipore MultiscreenHTs GF/B filter plate which has been pretreated with 0.5% PEI for at least one hour. The plate is vacuum filtered and washed with 7 washes of 100 ul/well of 50 mM Tris-Cl, pH 7.5, 120 mM NaCl, 5 mM KCl chilled to 4° C. The filtration and washing is completed in less than 90 s. The plates are air-dried overnight, 12 ul/well of MicroScint scintillation fluid added, and the plates counted in a Trilux.
(§2) Data analysis. The raw data are normalized to percent inhibition using control wells defining 0% (DMSO only) and 100% (selective inhibitor) inhibition which are run on each plate. Each plate is run in triplicate, and the concentration response curve thus generated is fit using the four-parameter dose response equation, Y=Bottom+(Top-Bottom)/(1+10^((LogIC50−X)*HillSlope)) in order to determine the IC50 value for each compound. The radioligand concentration chosen for each assay corresponds to the Kd concentration determined through saturation binding analysis for each assay.

[2] = target: T1, NK-1 (Homo sapiens, UniProt P25103); test: NK1 radioligand binding assay ([125I]Substance P, U373 membranes); settings: U373 cell membranes, 200 pM [125I]Substance P, 1 hour at room temperature
T1 construct: 30 ul/well of a 2×U373 membrane preparation
T1 sequence (P25103 whole entry): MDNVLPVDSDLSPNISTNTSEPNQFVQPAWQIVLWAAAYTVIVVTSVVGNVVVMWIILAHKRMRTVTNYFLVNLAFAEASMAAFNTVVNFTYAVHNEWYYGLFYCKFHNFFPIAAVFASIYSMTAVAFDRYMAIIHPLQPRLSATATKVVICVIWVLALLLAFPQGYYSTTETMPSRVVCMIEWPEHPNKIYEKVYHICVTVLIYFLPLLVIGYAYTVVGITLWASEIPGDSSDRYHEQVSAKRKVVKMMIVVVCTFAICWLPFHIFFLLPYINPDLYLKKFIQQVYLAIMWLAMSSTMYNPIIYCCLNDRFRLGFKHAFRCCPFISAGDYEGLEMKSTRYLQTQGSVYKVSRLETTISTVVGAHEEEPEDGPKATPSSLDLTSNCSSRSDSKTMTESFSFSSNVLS
Procedure: as §1
NK1 radioligand binding assay. Compounds are dissolved in 100% DMSO at a concentration 100× the desired highest assay concentration, serially diluted 1:3 in 100% DMSO, and 0.6 ul/well of each solution is dispensed to a Nunc polypropylene, round bottom, 384 well plate. 100% inhibition is defined with 0.6 ul/well of 1 mM L-733,060 (Sigma L-137) dissolved in DMSO. 30 ul/well of a 2×U373 membrane preparation (267 ug/ml in 100 mM Tris-Cl, pH 7.5, 6 mM MgCl2, 0.2% (v/v) Sigma mammalian protease inhibitor cocktail (Sigma P-8340), and 4 ug/ml chymostatin, Sigma C-7268) and 30 ul/well of a 2× radioligand solution (400 pM [^125I]Substance P (Perkin ElmerNEX-190) in 1% (w/v) BSA (Sigma A-2153), 0.1 mg/ml bacitracin, Sigma B-0125) are added to the well and the reaction incubated for 1 hour at room temperature. The contents of the assay plate are then transferred to a Millipore MultiscreenHTS GF/B filter plate which has been pretreated with 0.5% PEI for at least one hour. The plate is vacuum filtered and washed with 7 washes of 100 ul/well of 20 mM Tris-Cl, pH 7.5, 0.5% (w/v) BSA chilled to 4° C. The filtration and washing is completed in less than 90 s. The plates are air-dried overnight, 12 ul/well of MicroScint scintillation fluid added, and the plates counted in a Trilux.
as §2

hSERT, sequence (P31645 whole entry): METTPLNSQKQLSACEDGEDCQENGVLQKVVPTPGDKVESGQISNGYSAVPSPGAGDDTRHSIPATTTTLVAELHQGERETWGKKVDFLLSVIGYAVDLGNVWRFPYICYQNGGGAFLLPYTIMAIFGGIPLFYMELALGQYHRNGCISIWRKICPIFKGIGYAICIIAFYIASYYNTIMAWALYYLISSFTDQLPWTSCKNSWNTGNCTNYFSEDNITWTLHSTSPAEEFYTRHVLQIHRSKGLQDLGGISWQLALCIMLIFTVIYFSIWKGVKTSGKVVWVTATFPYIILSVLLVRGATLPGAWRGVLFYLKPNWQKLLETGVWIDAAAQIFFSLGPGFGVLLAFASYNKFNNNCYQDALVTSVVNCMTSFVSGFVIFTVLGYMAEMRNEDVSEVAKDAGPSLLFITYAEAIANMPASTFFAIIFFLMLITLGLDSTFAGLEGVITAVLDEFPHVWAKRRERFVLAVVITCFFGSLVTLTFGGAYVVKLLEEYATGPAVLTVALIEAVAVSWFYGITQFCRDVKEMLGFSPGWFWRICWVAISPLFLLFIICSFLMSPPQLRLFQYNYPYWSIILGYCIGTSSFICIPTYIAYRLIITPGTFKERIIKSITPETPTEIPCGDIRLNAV

Row | SMILES | IC50 ([1]; read-out: SERT IC50) | IC50 [2] | IC50 ([1]; SERT IC50 (nM))
1 | CC(OCC1(c2ccc(F)cc2)CCN(C)CC1)c1cc(C(F)(F)F)cc2[nH]ccc12 (racemic) [Example 128, (±)-4-(1-((4-(4-fluorophenyl)-1-methylpiperidin-4-yl)methoxy)ethyl)-6-(trifluoromethyl)-1H-indole] | 0.01 to 100 nM | 0.01 to 100 nM | 
2 | CC(OCC1(c2ccc(F)cc2)CCNCC1)c1cc(C(F)(F)F)cc2c1CC(=O)N2 (racemic) [Example 129, (±)-4-(1-((4-(4-fluorophenyl)piperidin-4-yl)methoxy)ethyl)-6-(trifluoromethyl)indolin-2-one, TFA] | 0.01 to 100 nM | 100 to 300 nM | 
3 | CC(OCC1(c2ccc(F)cc2)CCNCC1)c1cc(C(F)(F)F)cc2cn[nH]c12 (single isomer, unassigned) [Example 22, 7-(1-((4-(4-Fluorophenyl)piperidin-4-yl)methoxy)ethyl)-5-(trifluoromethyl)-1H-indazole] | 0.01 to 100 nM | 100 to 300 nM | 
4 | CC(OCC1(c2ccc(F)cc2)CCN(C)CC1)c1cc(C(F)(F)F)cc2cn[nH]c12 (single isomer, unassigned) [Example 23, 7-(1-((4-(4-Fluorophenyl)-1-methylpiperidin-4-yl)methoxy)ethyl)-5-(trifluoromethyl)-1H-indazole] | 0.01 to 100 nM | 100 to 300 nM | 
5 | CC(OCC1(c2ccc(F)cc2)CCNCC1)c1cc(C(F)(F)F)cc2cn[nH]c12 (single isomer, unassigned) [Example 24, 7-(1-((4-(4-Fluorophenyl)piperidin-4-yl)methoxy)ethyl)-5-(trifluoromethyl)-1H-indazole] | 0.01 to 100 nM | 0.01 to 100 nM | 
6 | CC(OCC1(c2ccc(F)cc2)CCN(C)CC1)c1cc(C(F)(F)F)cc2cn[nH]c12 (single isomer, unassigned) [Example 25, 7-(1-((4-(4-Fluorophenyl)-1-methylpiperidin-4-yl)methoxy)ethyl)-5-(trifluoromethyl)-1H-indazole] | 0.01 to 100 nM | 0.01 to 100 nM | 
7 | CC(OCC1(c2ccc(F)cc2)CCNCC1)c1cc(C(F)(F)F)cc2cnn(C)c12 (single isomer, unassigned) [Example 26, 7-(1-((4-(4-Fluorophenyl)piperidin-4-yl)methoxy)ethyl)-1-methyl-5-(trifluoromethyl)-1H-indazole] | 0.01 to 100 nM | 100 to 300 nM | 
8 | CC(OCC1(c2ccc(F)cc2)CCN(C)CC1)c1cc(C(F)(F)F)cc2cnn(C)c12 (single isomer, unassigned) [Example 27, 7-(1-((4-(4-Fluorophenyl)-1-methylpiperidin-4-yl)methoxy)ethyl)-1-methyl-5-(trifluoromethyl)-1H-indazole] | 0.01 to 100 nM | 100 to 300 nM | 
9 | CC(OCC1(c2ccc(F)cc2)CCNCC1)c1cc(C(F)(F)F)cc2cn(C)nc12 (single isomer, unassigned) [Example 28, 7-(1-((4-(4-Fluorophenyl)piperidin-4-yl)methoxy)ethyl)-2-methyl-5-(trifluoromethyl)-2H-indazole] | 100 to 300 nM | > 300 nM | 
10 | CC(OCC1(c2ccc(F)cc2)CCN(C)CC1)c1cc(C(F)(F)F)cc2cn(C)nc12 (single isomer, unassigned) [Example 29, 7-(1-((4-(4-Fluorophenyl)-1-methylpiperidin-4-yl)methoxy)ethyl)-2-methyl-5-(trifluoromethyl)-2H-indazole] | 0.01 to 100 nM | > 300 nM | 
11 | CC(OCC1(c2ccc(F)cc2)CCNCC1)c1cc(C(F)(F)F)cc2cnn(C)c12 (single isomer, unassigned) [Example 30, 7-(1-((4-(4-Fluorophenyl)piperidin-4-yl)methoxy)ethyl)-1-methyl-5-(trifluoromethyl)-1H-indazole] | 0.01 to 100 nM | 0.01 to 100 nM | 
12 | CC(OCC1(c2ccc(F)cc2)CCN(C)CC1)c1cc(C(F)(F)F)cc2cnn(C)c12 (single isomer, unassigned) [Example 31, 7-(1-((4-(4-Fluorophenyl)-1-methylpiperidin-4-yl)methoxy)ethyl)-1-methyl-5-(trifluoromethyl)-1H-indazole] | 0.01 to 100 nM | 0.01 to 100 nM | 
13 | CC(OCC1(c2ccc(F)cc2)CCNCC1)c1cc(C(F)(F)F)cc2cn(C)nc12 (single isomer, unassigned) [Example 32, 7-(1-((4-(4-Fluorophenyl)piperidin-4-yl)methoxy)ethyl)-2-methyl-5-(trifluoromethyl)-2H-indazole] | 0.01 to 100 nM | 0.01 to 100 nM | 
14 | CC(OCC1(c2ccc(F)cc2)CCN(C)CC1)c1cc(C(F)(F)F)cc2cn(C)nc12 (single isomer, unassigned) [Example 33, 7-(1-((4-(4-Fluorophenyl)-1-methylpiperidin-4-yl)methoxy)ethyl)-2-methyl-5-(trifluoromethyl)-2H-indazole] | 0.01 to 100 nM | 0.01 to 100 nM | 
15 | CC(OCC1(c2ccc(F)cc2)CCN(C)CC1)c1cc(C2CC2)cc2c(Cl)n[nH]c12 (single isomer, unassigned) [Example 54] |  | 0.01 to 100 nM | 0.01 to 100 nM
16 | CC(OCC1(c2ccc(F)cc2)CCN(C)CC1)c1cc(C(F)(F)F)cc2ccn(C)c12 (single isomer, unassigned) [Example 74, 7-(1-((4-(4-Fluorophenyl)-1-methylpiperidin-4-yl)methoxy)ethyl)-1-methyl-5-(trifluoromethyl)-1H-indole] | 100 to 300 nM | > 300 nM | 
17 | CC(OCC1(c2ccc(F)cc2)CCN(C)CC1)c1cc(C(F)(F)F)cc2ccn(C)c12 (single isomer, unassigned) [Example 75, 7-(1-((4-(4-Fluorophenyl)-1-methylpiperidin-4-yl)methoxy)ethyl)-1-methyl-5-(trifluoromethyl)-1H-indole] | 0.01 to 100 nM | 0.01 to 100 nM | 
18 | CC(OCC1(c2ccccc2)CCN(C)CC1)c1cc(Br)cc2c1ncn2CC1CC1 (single isomer, unassigned) [Example 130] | 0.01 to 100 nM | > 300 nM | 
19 | CC(OCC1(c2ccccc2)CCN(C)CC1)c1cc(Br)cc2c1ncn2CC1CC1 (single isomer, unassigned) [Example 131] | 0.01 to 100 nM | 0.01 to 100 nM | 
20 | CC(OCC1(c2ccc(F)cc2)CCN(C)CC1)c1cc(C(F)(F)F)cc2c1ncn2CC1CC1 (single isomer, unassigned) [Example 133] | 0.01 to 100 nM | > 300 nM | 
21 | CC(OCC1(c2ccc(F)cc2)CCN(C)CC1)c1cc(C(F)(F)F)cc2c1ncn2CC1CC1 (single isomer, unassigned) [Example 134] | 0.01 to 100 nM | 0.01 to 100 nM | 
22 | CCn1cnc2c(C(C)OCC3(c4ccc(F)cc4)CCN(C)CC3)cc(C(F)(F)F)cc21 (single isomer, unassigned) [Example 135] | 0.01 to 100 nM | > 300 nM | 
23 | CCn1cnc2c(C(C)OCC3(c4ccc(F)cc4)CCN(C)CC3)cc(C(F)(F)F)cc21 (single isomer, unassigned) [Example 136] | 0.01 to 100 nM | 0.01 to 100 nM | 
